Results published in patent publication US10494363B2, “Non-steroidal glucocorticoid receptor modulators for local drug delivery” (LEO PHARMA A/S, priority 2015, dated 2019).

Columns and labels:
[1] = target: T1, glucocorticoid receptor (GR), recombinant full-length receptor protein (Homo sapiens, UniProt P04150); assay: Glucocorticoid receptor binding assay (fluorescence polarization kit); conditions: 4 nM receptor, 2.5 nM Fluormone GS1 tracer, 2h room temperature, read-out: GR binding ABS IC50
T1 construct: 4 nM recombinant, full-length receptor protein was incubated with increasing concentrations of GR ligand; purchased Life Technologies A-15897
T1 sequence (P04150 1-777): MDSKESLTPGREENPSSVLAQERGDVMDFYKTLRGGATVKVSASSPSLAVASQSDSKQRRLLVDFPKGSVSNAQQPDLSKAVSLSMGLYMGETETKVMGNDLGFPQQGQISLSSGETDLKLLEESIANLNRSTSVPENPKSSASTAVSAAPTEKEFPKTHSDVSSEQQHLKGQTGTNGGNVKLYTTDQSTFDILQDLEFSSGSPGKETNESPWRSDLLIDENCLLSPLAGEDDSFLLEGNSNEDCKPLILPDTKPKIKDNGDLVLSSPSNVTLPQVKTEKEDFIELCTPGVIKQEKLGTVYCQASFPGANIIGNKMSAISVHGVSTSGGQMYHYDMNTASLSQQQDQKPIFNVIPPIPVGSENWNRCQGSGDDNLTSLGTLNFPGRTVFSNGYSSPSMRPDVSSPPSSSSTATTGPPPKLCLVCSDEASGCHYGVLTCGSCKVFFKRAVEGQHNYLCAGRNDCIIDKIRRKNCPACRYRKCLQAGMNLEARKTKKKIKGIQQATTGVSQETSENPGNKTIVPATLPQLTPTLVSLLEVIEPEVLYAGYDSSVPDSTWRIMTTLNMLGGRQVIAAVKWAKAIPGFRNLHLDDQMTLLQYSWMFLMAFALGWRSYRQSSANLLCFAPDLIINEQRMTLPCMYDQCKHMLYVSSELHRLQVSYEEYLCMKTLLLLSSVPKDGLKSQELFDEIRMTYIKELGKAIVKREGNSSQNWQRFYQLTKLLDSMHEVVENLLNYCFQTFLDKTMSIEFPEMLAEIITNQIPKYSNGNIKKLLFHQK
Experimental: Test compounds were diluted in DMSO over seven orders of magnitude, further diluted in assay buffer and distributed into 384-well plates. The sensitivity limit of this assay was 2-4 nM.
Data were processed by sigmoidal curve fitting.
Absolute (Abs) IC50 and Emax were determined from the curve fits.

[2] = system: TNF alpha release from human PBMCs; assay: Inhibition of TNF alpha release from human PBMCs; type: cell-based; conditions: PBMC, LPS 1 μg/ml, 18 hours, AlphaLISA
Experimental: PBMC were isolated from fresh buffy coats by density centrifugation using lymphoprep (Medinor AB, cat no 1019818) tubes. Isolated PBMCs were washed in assay medium (RPMI1640 with 25 mM HEPES, 1% pen/strep, 200 mM L glutamine and 10% Foetal calf serum). Surplus PBMCs were frozen in medium containing extra 10% foetal calf serum and 5% DMSO. On the assay day, fresh cells or cryopreserved cells after thawing were washed in serum free medium (RPMI1640 with 25 mM HEPES, 1% pen/strep, 200 mM L glutamine and 0.5% human serum albumin) and counted, in order to determine the fraction of living cells (generally >95%).
Test compounds were diluted in DMSO over seven orders of magnitude, further diluted in serum-free medium and distributed into wells of 384 well tissue culture plates. LPS was added to a final concentration of 1 μg/ml to the cells. Immediately thereafter titrated test compounds were added and incubated for 18 hours at 37° C.
The level of TNF-a in the culture supernatant was quantitated by AlphaLISA (Perkin Elmer). 2-(3,5-dichloro-4-pyridinyl)-1-(7-methoxyspiro[1,3-benzodioxole-2,1′-cyclopentan]-4-yl)-ethanone (CAS 185406-34-2) at 100×IC50 was used to define the assay window.
Data were processed by sigmoidal curve fitting. EC50 and Emax were determined from the curve fits.

[3] = Human liver microsomes (HLM) assay; type: in vitro ADME; conditions: hepatic extraction ratio; 0.5 μM compound, 0.5 mg/mL microsomes, NADPH, 37° C.
Experimental: Incubations of test compounds in DMSO, diluted with phosphate buffer, pH 7.4, at 0.5 μM were carried out with human liver microsomes (0.5 mg/mL). The percentage of organic solvent in the incubations was 1%. The human liver microsomal suspension in phosphate buffer was mixed with NADPH (1 mM) and preheated to 37° C. before test compound was added. Aliquots were taken at 0, 5, 10, 20 and 30 minutes, and reactions were terminated by addition of methanol containing analytical internal standard (IS).
The results were expressed as apparent clearance (Clapp) (mL/min/kg) and hepatic extraction ratio (Eh) (%) calculated from the rate constant (k) (min^−1) of test compound depletion.

Q: For Cc1cc(C(=O)N[C@@H](C)[C@H](Oc2ccc(C(=O)N[C@H]3CCCN(C(=O)[C@H]4COC(=O)C4)C3)nc2)c2ccc(C3CC3)cc2)on1 [Compound 8, N-[(1S,2R)-2-(4-cyclopropylphenyl)-1-methyl-2-[[6-[[(3S)-1-[(3R)-5-oxotetrahydrofuran-3-carbonyl]-3-piperidyl]carbamoyl]-3-pyridyl]oxy]ethyl]-3-methylisoxazole-5-carboxamide], which IC50 [1] is on record?
A: < 100 nM

Q: And the EC50 [2]?
A: < 100 nM

Q: And the “HLM assay Eh (%)” value [3]?
A: * (extraction ratio (Eh)>90%)

Q: For Cc1nc(C(=O)N[C@@H](C)[C@H](Oc2ccc(C(=O)O[C@H]3CCCN(C(=O)[C@H]4COC(=O)C4)C3)cc2)c2ccc(C3CC3)cc2)no1 [Compound 42, [(3S)-1-[(3R)-5-oxotetrahydrofuran-3-carbonyl]-3-piperidyl] 4-[(1R,2S)-1-(4-cyclopropylphenyl)-2-[(5-methyl-1,2,4-oxadiazole-3-carbonyl)amino]propoxy]benzoate], which IC50 [1] is on record?
A: < 100 nM

Q: What about the EC50 [2] of the same compound?
A: < 100 nM

Q: And the “HLM assay Eh (%)” value [3]?
A: * (extraction ratio (Eh)>90%)

Q: For C[C@H](NC(=O)c1cnco1)[C@H](Oc1ccc(C(=O)O[C@H]2CCCN(C(=O)[C@H]3COC(=O)C3)C2)cc1)c1ccc(C2CC2)cc1 [Compound 50, [(3S)-1-[(3R)-5-oxotetrahydrofuran-3-carbonyl]-3-piperidyl] 4-[(1R,2S)-1-(4-cyclopropylphenyl)-2-(oxazole-5-carbonylamino)propoxy]benzoate], which IC50 [1] is on record?
A: < 100 nM

Q: And the EC50 [2]?
A: < 100 nM

Q: What about the “HLM assay Eh (%)” value [3] of the same compound?
A: * (extraction ratio (Eh)>90%)

Q: With C[C@H](NC(=O)c1ncco1)[C@H](Oc1ccc(C(=O)O[C@H]2CCCN(C(=O)[C@H]3COC(=O)C3)C2)cc1)c1ccc(C2CC2)cc1 [Compound 49, [(3S)-1-[(3R)-5-oxotetrahydrofuran-3-carbonyl]-3-piperidyl] 4-[(1R,2S)-1-(4-cyclopropylphenyl)-2-(oxazole-2-carbonylamino)propoxy]benzoate] as the compound, how does the IC50 [1] read?
A: < 100 nM

Q: What about the EC50 [2] of the same compound?
A: < 100 nM

Q: And the “HLM assay Eh (%)” value [3]?
A: * (extraction ratio (Eh)>90%)

Q: With Cc1nnc(C(=O)N[C@@H](C)[C@H](Oc2ccc(C(=O)O[C@H]3CCCN(C(=O)[C@H]4COC(=O)C4)C3)cc2)c2ccc(C3CC3)cc2)o1 [Compound 31, [(3S)-1-[(3R)-5-oxotetrahydrofuran-3-carbonyl]-3-piperidyl] 4-[(1R,2S)-1-(4-cyclopropylphenyl)-2-[(5-methyl-1,3,4-oxadiazole-2-carbonyl)amino]propoxy]benzoate] as the compound, how does the IC50 [1] read?
A: < 100 nM

Q: And the EC50 [2]?
A: < 100 nM

Q: And the “HLM assay Eh (%)” value [3]?
A: * (extraction ratio (Eh)>90%)

Q: With Cc1noc(C(=O)N[C@@H](C)[C@H](Oc2ccc(C(=O)O[C@H]3CCCN(C(=O)[C@H]4COC(=O)C4)C3)cc2)c2ccc(C3CC3)cc2)n1 [Compound 56, [(3S)-1-[(3R)-5-oxotetrahydrofuran-3-carbonyl]-3-piperidyl] 4-[(1R,2S)-1-(4-cyclopropylphenyl)-2-[(3-methyl-1,2,4-oxadiazole-5-carbonyl)amino]propoxy]benzoate] as the compound, how does the IC50 [1] read?
A: < 100 nM

Q: And the EC50 [2]?
A: < 100 nM

Q: And the “HLM assay Eh (%)” value [3]?
A: * (extraction ratio (Eh)>90%)

Q: Which IC50 [1] does the source give for Cc1sncc1C(=O)N[C@@H](C)[C@H](Oc1ccc(C(=O)O[C@H]2CCCN(C(=O)[C@H]3COC(=O)C3)C2)cc1)c1ccc(C2CC2)cc1 [Compound 48, [(3S)-1-[(3R)-5-oxotetrahydrofuran-3-carbonyl]-3-piperidyl] 4-[(1R,2S)-1-(4-cyclopropylphenyl)-2-[(5-methylisothiazole-4-carbonyl)amino]propoxy]benzoate] here?
A: < 100 nM

Q: What about the EC50 [2] of the same compound?
A: < 100 nM

Q: What about the “HLM assay Eh (%)” value [3] of the same compound?
A: * (extraction ratio (Eh)>90%)

Q: What does the source list for C[C@H](NC(=O)c1ccno1)[C@H](Oc1ccc(C(=O)O[C@H]2CCCN(C(=O)[C@H]3COC(=O)C3)C2)cc1)c1ccc(C2CC2)cc1 [Compound 54, [(3S)-1-[(3R)-5-oxotetrahydrofuran-3-carbonyl]-3-piperidyl] 4-[(1R,2S)-1-(4-cyclopropylphenyl)-2-(isoxazole-5-carbonylamino)propoxy]benzoate]?
A: IC50 [1]: < 100 nM; EC50 [2]: < 100 nM; HLM assay Eh (%) [3]: * (extraction ratio (Eh)>90%)

Q: Which IC50 [1] does the source give for C[C@H](NC(=O)c1cscn1)[C@H](Oc1ccc(C(=O)N[C@H]2CCCN(C(=O)[C@H]3COC(=O)C3)C2)nc1)c1ccc(C2CC2)cc1 [Compound 7, N-[(1S,2R)-2-(4-cyclopropylphenyl)-1-methyl-2-[[6-[[(3S)-1-[(3R)-5-oxotetrahydrofuran-3-carbonyl]-3-piperidyl]carbamoyl]-3-pyridyl]oxy]ethyl]thiazole-4-carboxamide] here?
A: < 100 nM

Q: And the EC50 [2]?
A: < 100 nM

Q: And the “HLM assay Eh (%)” value [3]?
A: * (extraction ratio (Eh)>90%)

Q: What does the source list for C[C@H](NC(=O)C1(O)CC1)[C@H](Oc1ccc(C(=O)N[C@H]2CCCN(C(=O)[C@H]3COC(=O)C3)C2)nc1)c1ccc(C2CC2)cc1 [Compound 18, 5-[(1R,2S)-1-(4-cyclopropylphenyl)-2-[(1-hydroxycyclopropanecarbonyl)amino]propoxy]-N-[(3S)-1-[(3R)-5-oxotetrahydrofuran-3-carbonyl]-3-piperidyl]pyridine-2-carboxamide]?
A: IC50 [1]: 100 to 300 nM; EC50 [2]: < 100 nM; HLM assay Eh (%) [3]: * (extraction ratio (Eh)>90%)

Q: For C[C@H](NC(=O)c1ccno1)[C@H](Oc1ccc(C(=O)N[C@H]2CCCN(C(=O)[C@H]3COC(=O)C3)C2)nc1)c1ccc(C2CC2)cc1 [Compound 12, N-[(1S,2R)-2-(4-cyclopropylphenyl)-1-methyl-2-[[6-[[(3S)-1-[(3R)-5-oxotetrahydrofuran-3-carbonyl]-3-piperidyl]carbamoyl]-3-pyridyl]oxy]ethyl]isoxazole-5-carboxamide], which IC50 [1] is on record?
A: < 100 nM

Q: What about the EC50 [2] of the same compound?
A: < 100 nM

Q: And the “HLM assay Eh (%)” value [3]?
A: * (extraction ratio (Eh)>90%)

Q: Which IC50 [1] does the source give for C[C@H](NC(=O)CCO)[C@H](Oc1ccc(C(=O)N[C@H]2CCCN(C(=O)[C@H]3COC(=O)C3)C2)nc1)c1ccc(C2CC2)cc1 [Compound 16, 5-[(1R,2S)-1-(4-cyclopropylphenyl)-2-(3-hydroxypropanoylamino)propoxy]-N-[(3S)-1-[(3R)-5-oxotetrahydrofuran-3-carbonyl]-3-piperidyl]pyridine-2-carboxamide] here?
A: > 300 nM

Q: And the EC50 [2]?
A: < 100 nM

Q: What about the “HLM assay Eh (%)” value [3] of the same compound?
A: * (extraction ratio (Eh)>90%)

Q: For C[C@H](NC(=O)c1cscn1)[C@H](Oc1ccc(C(=O)O[C@H]2CCCN(C(=O)[C@H]3COC(=O)C3)C2)cc1)c1ccc(C2CC2)cc1 [Compound 55, [(3S)-1-[(3R)-5-oxotetrahydrofuran-3-carbonyl]-3-piperidyl] 4-[(1R,2S)-1-(4-cyclopropylphenyl)-2-(thiazole-4-carbonylamino)propoxy]benzoate], which IC50 [1] is on record?
A: < 100 nM

Q: And the EC50 [2]?
A: < 100 nM

Q: And the “HLM assay Eh (%)” value [3]?
A: * (extraction ratio (Eh)>90%)

Q: Which results are given for C[C@H](NC(=O)C(F)(F)F)[C@H](Oc1ccc(C(=O)O[C@H]2CCCN(C(=O)[C@H]3COC(=O)C3)C2)cc1)c1ccc(C2CC2)cc1 [Compound 24, [(3S)-1-[(3R)-5-oxotetrahydrofuran-3-carbonyl]-3-piperidyl] 4-[(1R,2S)-1-(4-cyclopropylphenyl)-2-[(2,2,2-trifluoroacetyl)amino]propoxy]benzoate]?
A: IC50 [1]: < 100 nM; EC50 [2]: < 100 nM; HLM assay Eh (%) [3]: * (extraction ratio (Eh)>90%)
